Values quoted from earlier work, collected in US12691120B2, “Liquid oral formulations for PDE V inhibitors” (LIQMEDS WORLDWIDE LIMITED, priority 2017, dated 2026).
Structures can show the parent of a compound that is named as a salt. Where two headings read alike, the source gives them in different places.

Assays:
[1] = tablets or oral suspension
[2] = oral administration
[3] = measured using rats
[4] = EMEA CHMP Assessment Report for Vizarsin
[5] = Jordanian Pharmaceutical Manufacturing Co.

Structure (SMILES) | solubility in acetone [4] | solubility in chloroform [4] | solubility in dimethylsulfoxide (DMSO) [4] | solubility in ethanol [4] | solubility in methanol [4] | solubility in ethanol [5] | times less soluble in ethanol than in water [5] | absolute bioavailability [1] | average time required to reach the maximum blood concentration (Cmax) [2] [h] | water solubility | bioavailability [3] [%]
CCCc1nn(C)c2c(=O)[nH]c(-c3cc(S(=O)(=O)N4CCN(C)CC4)ccc3OCC)nc12 [Sildenafil citrate] | insoluble | insoluble | soluble | insoluble | soluble | ~ 1 mg/ml | about 3.5 times | about 41% |  |  | 
CN1CC(=O)N2[C@H](c3ccc4c(c3)OCO4)c3[nH]c4ccccc4c3C[C@@H]2C1=O [Tadalafil] |  |  |  |  |  |  |  |  | 2 | about 2 μg/mL | 20.5
